The record followed here is publication PMC8728736, “A Reactivity-Based ^18F-Labeled Probe for PET Imaging of Oxidative Stress in Chemotherapy-Induced Cardiotoxicity” (Molecular Pharmaceutics, 2021).

Series [1] can be described thus: Lipophilicity, partition between 1-octanol and PBS. The series is classed as physicochemical. Particulars: 1-octanol/PBS, pH 7.4, 1-octanol/PBS pH 7.4, shake-flask, n = 6; read-out: LogD. How it is done: The lipophilicity of ^18F-FPBT and ^18F-FPBT-Ox was determined by a conventional partition method between 1-octanol and phosphate buffered saline (PBS), pH 7.4. 1-Octanol was presaturated with PBS before use. The radiotracer (∼2 KBq) was added to a mixture of PBS (200 μL) and 1-octanol (200 μL) in a 1.5 mL Eppendorf vial (n = 6). The mixture was vigorously agitated at rt for 5 min and then centrifuged at 3000 g for 10 min. A 100 μL aliquot from each layer was drawn for measurement in a gamma counter. The LogDoct/PBS was calculated as follows: log [(cpm in the 1-octanol layer – cpm 1-octanol blank)/(cpm in the PBS layer – cpm PBS blank)].

Series [2] is described as follows: Vial stability by radio-HPLC. In kind it is physicochemical. Particulars: room temperature, 4 h. How it is done: ^18F-FPBT (1–4 MBq) in 100% ethanol or 5% ethanol in PBS containing sodium ascorbate (0.01 mg/mL) was kept at room temperature for 4 h and then analyzed by radio-HPLC.
A short description of series [3]: Serum stability at 37 °C by radio-HPLC. In kind it is in vitro ADME, rat. The note with it: rat serum, ice-cold acetonitrile precipitation. How it is done: ^18F-FPBT (∼3.0 MBq) in 5% ethanol in PBS (200 μL) containing sodium ascorbate (0.01 mg/mL) was incubated with rat serum (200 μL) at 37 °C for 1 min or 1 h. Subsequently, plasma proteins were precipitated from the supernatant with ice-cold acetonitrile (1.5 mL), and samples were centrifuged (3 min, 13 000 rpm). The residual activity in the pellet was <3%. The supernatant (∼2.0 MBq, 1.0 mL) was analyzed by radio-HPLC. HPLC method: ZORBAX column (300SB-C18, semipreparative 9.4 mm × 250 mm, 5 μm) using acetonitrile and water as the mobile phase, at a flow rate of 3.0 mL/min. The following gradient was used: from 50% to 90% acetonitrile in 15 min; kept at 90% acetonitrile for 10 min; from 90 to 50% acetonitrile in 5 min.
^18F-FBPT-Ox (2–4 MBq, 50 μL in 10% EtOH/PBS) was added to serum (500 μL) and incubated at 37 °C for 5, 15, and 30 min, respectively. Plasma proteins were precipitated with a 5-sulfosalicylic acid water solution (10% w/v, 1 mL) and centrifuged (3 min, 13 000 rpm). The supernatant was removed and diluted with 500 μL of DI H2O and analyzed via radio-HPLC. A control experiment was performed where ^18F-FBPT-Ox (2 MBq, 50 μL in 10% EtOH/PBS) was added to 500 μL of PBS, incubated at 37 °C for 30 min. A 5-sulfosalicylic acid water solution (10% w/v, 1 mL) was added, thoroughly mixed, then diluted with 500 μL of DI H2O, and analyzed via radio-HPLC. […]

The nature of series [4]: Reactivity of 18F-FPBT to reactive oxygen species: superoxide. Particulars: potassium superoxide, 5 min, ascorbate 1 mg/mL, n = 3. How it is done: (§1) ^18F-FPBT (0.5–2.0 MBq) was reacted with potassium superoxide (source of superoxide, 1 mg), hydrogen peroxide (100 μM), Fenton-reaction-generated hydroxyl radicals (100 μM), iron(II) sulfate heptahydrate (100 μM), tert-butyl hydroperoxide (100 μM), tert-butoxy radical (100 μM), and 3-morpholinosydnomine (source of peroxynitrite (100 μM)) for 5 min or diethylamine NONOate (source of nitric oxide, 100 μM) for 30 min at room temperature, after which it was subjected to radio-HPLC analysis and % oxidation was calculated.

Series [5] is described as follows: Reactivity of 18F-FPBT to reactive oxygen species: tert-butoxy radical. The note with it: 100 μM, 5 min. How it is done:
as §1

In general, LogD refers to the decadic logarithm of the distribution of all forms, ionised or not, between an organic phase and buffer at a given pH. `[18F]CCCN1c2ccccc2SC1c1ccccc1` (stereo not drawn) [^18F-FPBT, 3-(3-[^18F]Fluoropropyl)-2-phenyl-2,3-dihydrobenzo[d]thiazole]: the LogD in series [1] is 1 ± 0.08. Besides, the Vial stability result in series [2] (5% ethanol in PBS with ascorbic acid (0.01 mg/mL)) and in series [2] (pure ethanol) was “stable” in each case. Moreover, in series [3], the “Residual activity in the pellet after protein precipitation” value is below 3%. In addition, in series [4], the “% oxidation by superoxide in the presence of ascorbate” value turned out to be 31 ± 5%. Further, the “Oxidation by tert-butoxy radical” value in series [5] was “no oxidation was observed”.
